In US8785499B2 (priority 2009, dated 2014):
Read-outs that look alike come from different tables or passages of the source.

What was measured:
ecNadD = ecNadD (Escherichia coli (strain K12), UniProt P0A752); assay: biochemical; format: biochemical; details: for inhibition at 100 µM: read-out: INHIBITION (%) E. coli; for IC50: IC50 ecNadD
baNadD = baNadD (Bacillus anthracis, UniProt C3L5T6); assay: biochemical; format: biochemical; details: for inhibition at 50 µM: read-out: INHIBITION (%) B. anthracis
baNadD, sequence (C3L5T6 whole entry, looked up): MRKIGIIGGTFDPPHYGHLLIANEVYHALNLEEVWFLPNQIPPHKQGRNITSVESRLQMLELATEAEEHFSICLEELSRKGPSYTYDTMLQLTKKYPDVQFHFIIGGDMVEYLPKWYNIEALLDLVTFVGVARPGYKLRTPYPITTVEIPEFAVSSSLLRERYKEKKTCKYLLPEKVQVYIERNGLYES

## O=S(=O)(Nc1ccc(Cl)cc1)c1ccc(Cl)s1 [compound 297]
ecNadD
  […]. coli: 0%
baNadD
  […]. anthracis: 0%

## O=C(CSc1ccccc1)Nc1cc(C(=O)O)cc(C(=O)O)c1 [compound 236]
ecNadD
  […]. coli: 0%
baNadD
  […]. anthracis: 0%

## CCn1c(SCC(N)=O)nnc1-c1ccc(Cl)cc1 [compound 065]
ecNadD
  […]. coli: 14%
baNadD
  […]. anthracis: 0%

## CS(=O)(=O)NCCOc1ccc(S(=O)(=O)NCc2ccccc2)cc1 [compound 179]
ecNadD
  […]. coli: 3%
baNadD
  […]. anthracis: 0%

## Nc1c(C(=O)Nc2ccc(F)cc2)sc2nc(-c3ccc(F)cc3)ccc12 [03_25]
ecNadD
  inhibition at 100 µM: 8%
baNadD
  inhibition at 50 µM: 1%

## O=C(CCC(=O)Nc1ccccc1Br)N/N=C/c1c2ccccc2cc2ccccc12 [01_04]
ecNadD
  IC50: 15 µM
  inhibition at 100 µM: 79%
baNadD; read-out: IC50 baNadD
  IC50: 25 µM
baNadD
  inhibition at 50 µM: 100%

## CSc1cccc(NS(=O)(=O)c2ccc(F)cc2)c1 [compound 208]
ecNadD
  […]. coli: 0%
baNadD
  […]. anthracis: 0%

## NS(=O)(=O)c1ccc(CCNC(=O)c2ccc([NH2+][O-])cc2)cc1 [compound 213]
ecNadD
  […]. coli: 0%
baNadD
  […]. anthracis: 54%

## O=C(CCC(=O)Nc1ccc(Br)cc1)N/N=C/C=C/c1ccccc1 [01_12]
ecNadD
  inhibition at 100 µM: 68%
baNadD; IC50 baNadD
  IC50: 48 µM
baNadD
  inhibition at 50 µM: 75%

## CC(=O)Nc1ccc(/N=C/c2ccc([N+](=O)[O-])cc2)cc1 [compound 230]
ecNadD
  […]. coli: 0%
baNadD
  […]. anthracis: 0%

## CCOC(=O)c1ccc(N/C=C2\C(=O)Oc3ccccc3C2=O)cc1 [compound 220]
ecNadD
  […]. coli: 0%
baNadD
  […]. anthracis: 0%

## Brc1cnc2nc(/C=C/c3ccccc3)[nH]c2c1 [compound 006]
ecNadD
  […]. coli: 62%
baNadD
  […]. anthracis: 34%

## Cc1cccc(C(=O)NNC(=O)/C=C\C(=O)O)c1 [compound 120]
ecNadD
  […]. coli: 8%
baNadD
  […]. anthracis: 0%

## Cc1ccc(/C=N/NC(=O)CCC(=O)Nc2ccc(C)cc2)cc1 [01_14]
ecNadD
  inhibition at 100 µM: 60%
baNadD
  inhibition at 50 µM: 70%

## O=C1Nc2ccccc2/C1=C/Nc1cccnc1 [15_15]
ecNadD
  inhibition at 100 µM: 12%
baNadD
  inhibition at 50 µM: 10%

## COC(=O)CSc1nnc(-c2ccc(Cl)cc2Cl)o1 [compound 274]
ecNadD
  […]. coli: 0%
baNadD
  […]. anthracis: 0%

## NS(=O)(=O)c1ccc(NC(=S)Nc2ccc(Cl)cc2F)cc1 [compound 084]
ecNadD
  […]. coli: 11%
baNadD
  […]. anthracis: 0%

## O=C(O)c1nonc1NCn1cnnn1 [compound 116]
ecNadD
  […]. coli: 8%
baNadD
  […]. anthracis: 5%

## Cc1ccc(C2C(C#N)=C(N)Oc3ncnc(O)c32)cc1 (centres unmarked) [compound 259]
ecNadD
  […]. coli: 0%
baNadD
  […]. anthracis: 0%

## O=C(O)Cn1cc(Cl)c([N+](=O)[O-])n1 [compound 117]
ecNadD
  […]. coli: 8%
baNadD
  […]. anthracis: 14%

## Cc1cc(Nc2cccc(C(=O)O)c2)n2ncnc2n1 [compound 014]
ecNadD
  […]. coli: 30%
baNadD
  […]. anthracis: 0%

## CCSc1ccccc1C(=O)Nc1ccc(S(N)(=O)=O)cc1 [compound 121]
ecNadD
  […]. coli: 8%
baNadD
  […]. anthracis: 0%

## Oc1c(Br)cc(Cl)cc1/C=N/c1ccccn1 [compound 044]
ecNadD
  […]. coli: 17%
baNadD
  […]. anthracis: 0%

## O=C(O)c1ccccc1S(=O)(=O)c1ccccc1C(=O)O [compound 130]
ecNadD
  […]. coli: 7%
baNadD
  […]. anthracis: 28%

## Nc1nnc(SCC(=O)Nc2ccc(Cl)c(Cl)c2)s1 [compound 263]
ecNadD
  […]. coli: 0%
baNadD
  […]. anthracis: 0%

## Cc1nc(N)nc(O)c1Oc1ccccc1 [compound 102]
ecNadD
  […]. coli: 9%
baNadD
  […]. anthracis: 6%

## O=C(CCC(=O)Nc1ccc(I)cc1)N/N=C/c1c2ccccc2cc2ccccc12 [compound 001]
ecNadD
  IC50: 15 µM
  inhibition at 100 µM: 79%
baNadD; IC50 baNadD
  IC50: 21 µM
baNadD
  inhibition at 50 µM: 88%

## Cn1nnnc1SCC(=O)Nc1ccc(Br)cc1Cl [compound 108]
ecNadD
  […]. coli: 9%
baNadD
  […]. anthracis: 0%

## NS(=O)(=O)c1ccc(NC(=O)c2cc3cc(Br)ccc3oc2=O)cc1 [compound 050]
ecNadD
  […]. coli: 16%
baNadD
  […]. anthracis: 38%

## O=C1Nc2ccccc2/C1=C/Nc1ccc(F)cc1F [15_22]
ecNadD
  inhibition at 100 µM: 10%
baNadD
  inhibition at 50 µM: 28%

## NS(=O)(=O)c1ccc(Nc2nc(-c3ccc(O)c(O)c3)cs2)cc1 [compound 010]
ecNadD
  […]. coli: 32%
baNadD
  […]. anthracis: 89%

## Cn1ccc(NC(=O)Nc2ccc(Cl)cc2Cl)n1 [compound 091]
ecNadD
  […]. coli: 10%
baNadD
  […]. anthracis: 0%

## Nc1nonc1C(=O)NCCNS(=O)(=O)Cc1ccccc1 [compound 051]
ecNadD
  […]. coli: 16%
baNadD
  […]. anthracis: 0%

## COc1cc(/C=N/c2ccc3[nH]c(=O)[nH]c3c2)ccc1OC(C)=O [compound 012]
ecNadD
  […]. coli: 30%
baNadD
  […]. anthracis: 0%

## Oc1ccc(Br)cc1/C=N/Nc1nnn[nH]1 [compound 060]
ecNadD
  […]. coli: 15%
baNadD
  […]. anthracis: 0%

## CSc1ccc(CNc2ccc(S(N)(=O)=O)cc2)cc1 [compound 150]
ecNadD
  […]. coli: 5%
baNadD
  […]. anthracis: 0%

## CCc1ccccc1N/C=C1\C(=O)Nc2ccccc21 [15_27]
ecNadD
  IC50: > 200 µM
  inhibition at 100 µM: 8%
baNadD; IC50 baNadD
  IC50: > 200 µM
baNadD
  inhibition at 50 µM: 42%

## Cc1ccc(N/C=C2\C(=O)Nc3ccccc32)cc1Cl [15_01]
ecNadD
  IC50: > 200 µM
  inhibition at 100 µM: 24%
baNadD; IC50 baNadD
  IC50: > 200 µM
baNadD
  inhibition at 50 µM: 37%

## Nc1nnc(CCSc2cc(Cl)ccc2Cl)s1 [compound 018]
ecNadD
  […]. coli: 27%
baNadD
  […]. anthracis: 0%

## N=C(N)N/N=C/c1ccc([N+](=O)[O-])cc1 [compound 078]
ecNadD
  […]. coli: 12%
baNadD
  […]. anthracis: 0%

## C=CCSc1nnc(-c2cc(Br)ccc2N)c(O)n1 [compound 187]
ecNadD
  […]. coli: 2%
baNadD
  […]. anthracis: 0%

## O=C(Cn1cnc2ccccc2c1=O)Nc1cccc(C(=O)O)c1 [compound 280]
ecNadD
  […]. coli: 0%
baNadD
  […]. anthracis: 0%

## O=S(=O)(NCCCc1ccccc1)c1cccc2nsnc12 [compound 142]
ecNadD
  […]. coli: 6%
baNadD
  […]. anthracis: 0%

## Cc1cc(N/C=C2\N=C(c3ccc(Cl)cc3)OC2=O)no1 [compound 066]
ecNadD
  […]. coli: 13%
baNadD
  […]. anthracis: 80%

## O=C(Nc1ccc(Cl)cn1)c1cccnc1 [compound 279]
ecNadD
  […]. coli: 0%
baNadD
  […]. anthracis: 0%

## O=C(O)c1ccc(OCOc2ccc(C(=O)O)c(C(=O)O)c2)cc1C(=O)O [compound 181]
ecNadD
  […]. coli: 3%
baNadD
  […]. anthracis: 56%

## O=C1Nc2ccccc2/C1=C/Nc1ccc(Br)cc1F [compound 015]
ecNadD
  IC50: 30 µM
  inhibition at 100 µM: 29%
baNadD; IC50 baNadD
  IC50: 16 µM
baNadD
  inhibition at 50 µM: 57%

## O=C(COc1ccc(Cl)cc1)N/N=C/c1cccs1 [compound 080]
ecNadD
  […]. coli: 11%
baNadD
  […]. anthracis: 24%

## CSc1cccc(N/C=C2\C(=O)Nc3ccccc32)c1 [15_18]
ecNadD
  inhibition at 100 µM: 11%
baNadD
  inhibition at 50 µM: 24%

## Nc1c(C(=O)Nc2cc(Cl)cc(Cl)c2)sc2nc(-c3ccncc3)ccc12 [03_28]
ecNadD
  inhibition at 100 µM: 0%
baNadD
  inhibition at 50 µM: 0%

## O=C(O)/C=C/c1ccncc1 [compound 148]
ecNadD
  […]. coli: 5%
baNadD
  […]. anthracis: 4%

## Nc1c(C(=O)Nc2ccc(F)c(Cl)c2)sc2nc(-c3ccc(F)cc3)ccc12 [03_13]
ecNadD
  inhibition at 100 µM: 52%
baNadD
  inhibition at 50 µM: 26%

## Cc1noc(C)c1S(=O)(=O)Nc1ccc(Br)cc1 [compound 265]
ecNadD
  […]. coli: 0%
baNadD
  […]. anthracis: 4%

## NC(=S)NNC(=O)c1ccccc1C(=O)O [compound 136]
ecNadD
  […]. coli: 6%
baNadD
  […]. anthracis: 64%

## Cc1ccc(C(=O)Nc2nc3ccc(Br)cc3s2)o1 [compound 123]
ecNadD
  […]. coli: 7%
baNadD
  […]. anthracis: 0%

## Cc1ccc(N/C=C2\C(=O)Nc3ccccc32)cc1C [15_14]
ecNadD
  IC50: 88 µM
  inhibition at 100 µM: 12%
baNadD; IC50 baNadD
  IC50: 74 µM
baNadD
  inhibition at 50 µM: 70%

## Cc1ccc([N+](=O)[O-])cc1NS(=O)(=O)c1ccc(F)cc1 [compound 264]
ecNadD
  […]. coli: 0%
baNadD
  […]. anthracis: 0%

## O=C(NCCNc1ccc([N+](=O)[O-])cc1)c1ccccc1Br [compound 260]
ecNadD
  […]. coli: 0%
baNadD
  […]. anthracis: 0%

## O=C(O)c1ccc(-n2cccn2)cc1 [compound 141]
ecNadD
  […]. coli: 6%
baNadD
  […]. anthracis: 17%
